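Cells were grown in 96-well plates and exposed to each compound for 48 hours at five concentrations; endpoints were interpolated linearly between bracketing concentrations, or set to the highest concentration if not reached. Abbreviation: GI50, concentration required for 50% inhibition of growth.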 Calls of active or inactive are those of the source. Cut-off read from the data, not from the text of the source: active = GI50 up to about 1.1 µM and inactive = higher.

Test systems include LOX IMVI; 786-0; SF-295; HT-29; NCI-H23; Hs-578T; IGROV-1; M14; ACHN; SN12C; UACC-62; NCI-H460; SF-268; HOP-92; SF-539; HL-60; SNB-75; SR.
What all share (assay): DTP human tumour cell line panel, 48 h

In general, GI50 refers to the concentration giving 50% growth inhibition. With `CN(CCCNC(=O)c1cn(C)c2c1ccc1ccccc12)CCCNC(=O)c1cn(C)c2c1ccc1ccccc12`, the GI50 with LOX IMVI is 1.82 µM (inactive); in the assay on 786-0 it was 1.87 µM (inactive); in the assay with SF-295, 4.6 µM (inactive); with HT-29, 1.55 µM (inactive); in the assay with NCI-H23, 1.51 µM (inactive); in the assay with Hs-578T, 1.44 µM (inactive). In addition, the GI50 is 1.11 µM (active) in the assay with IGROV-1; 1.58 µM (inactive) in the assay with M14; 1.71 µM (inactive) in the assay with ACHN; 1.41 µM (inactive) in the assay on SN12C; 2.06 µM (inactive) in the assay on UACC-62; 1.51 µM (inactive) with NCI-H460. Moreover, the GI50 in the assay with SF-268 was 1.49 µM (inactive); in the assay on HOP-92, 1.42 µM (inactive).
Consider `CCOC(=O)CC1=N/C(=N/C(=N)N[N+](=O)[O-])SC1`, for which the GI50 with LOX IMVI, in the assay on 786-0, with SF-295, in the assay on HT-29, in the assay on NCI-H23 and in the assay on SF-539 was > 100 µM (inactive) each time. For the same molecule, the GI50 in the assay with IGROV-1, with HL-60, with SNB-75, in the assay on M14, with ACHN and with SN12C was > 100 µM (inactive) in each case. In addition, the GI50 in the assay on UACC-62, in the assay with NCI-H460, in the assay with SF-268 and in the assay with HOP-92 was > 100 µM (inactive) throughout.
As to `O=C1CN(c2cccc(C(F)(F)F)c2)C(=O)CN1CCN1CC(=O)N(c2cccc(C(F)(F)F)c2)CC1=O`, the GI50 in the assay on 786-0, in the assay on SF-295, in the assay with HT-29, in the assay on SF-539, in the assay on Hs-578T and in the assay with IGROV-1 was > 100 µM (inactive) each time. In addition, the GI50 with HL-60, in the assay on SNB-75, in the assay on M14, in the assay on ACHN, in the assay with SN12C and in the assay with SR was > 100 µM (inactive) throughout. The GI50 in the assay with NCI-H460 and in the assay with SF-268 was > 100 µM (inactive) each time.
Turning to `O=[N+]([O-])c1ccc(-n2nnc(C3=NCCCN3)c2-c2ccc(Cl)cc2)cc1`, the GI50 with LOX IMVI is > 100 µM (inactive); in the assay on 786-0 it was > 100 µM (inactive); with SF-295, > 100 µM (inactive); with HT-29, 58.5 µM (inactive); in the assay on NCI-H23, > 100 µM (inactive); with SF-539, > 100 µM (inactive). Moreover, the GI50 is > 100 µM (inactive) in the assay with IGROV-1; 46.3 µM (inactive) with HL-60; > 100 µM (inactive) in the assay with SNB-75; 54 µM (inactive) in the assay on M14; > 100 µM (inactive) in the assay on ACHN; > 100 µM (inactive) in the assay with SN12C. The GI50 in the assay on UACC-62 is > 100 µM (inactive); with SR, 29 µM (inactive); in the assay with NCI-H460, > 100 µM (inactive); in the assay on SF-268, > 100 µM (inactive); in the assay with HOP-92, > 100 µM (inactive).
For `O=C(Nc1cnc(O)nc1O)C(Cl)Cl`, the GI50 with LOX IMVI, with 786-0, with SF-295, in the assay on HT-29, in the assay with NCI-H23 and in the assay with SF-539 was > 100 µM (inactive) in each case. Further, the GI50 in the assay on IGROV-1, in the assay on HL-60, with SNB-75, in the assay with M14, in the assay on ACHN and in the assay with SN12C was > 100 µM (inactive) in each case. Further, the GI50 in the assay with UACC-62 and with HOP-92 was > 100 µM (inactive) each time.
Turning to `COC(=O)c1nc(Cl)nc(Cl)c1Cl`, the GI50 with LOX IMVI is 13.4 µM (inactive); in the assay with 786-0 it was 17.3 µM (inactive); with SF-295, 42.3 µM (inactive); in the assay on HT-29 it was 22.5 µM (inactive); with NCI-H23, 44.7 µM (inactive); in the assay on SF-539, 24.5 µM (inactive). For the same molecule, the GI50 with Hs-578T is 21.8 µM (inactive); with IGROV-1, 22.8 µM (inactive); in the assay on SNB-75, 87.7 µM (inactive); in the assay with M14 it was 20.7 µM (inactive); in the assay on ACHN, 14.4 µM (inactive); in the assay on SN12C, 20.9 µM (inactive). The GI50 in the assay on UACC-62 was > 10 µM (inactive); in the assay with SR it was 15.1 µM (inactive); in the assay with NCI-H460, 32.2 µM (inactive); in the assay on SF-268, 19.1 µM (inactive); in the assay with HOP-92, 19.4 µM (inactive).
Turning to `O=C(c1ccccc1)N1C(=S)NC(=N/c2ccccc2)/C1=N\c1ccccc1`, the GI50 in the assay on LOX IMVI, in the assay on 786-0, in the assay with SF-295, in the assay on HT-29, in the assay with NCI-H23 and in the assay with SF-539 was > 100 µM (inactive) throughout. The GI50 in the assay on Hs-578T, in the assay on IGROV-1, in the assay with HL-60, with SNB-75, with ACHN and in the assay with SN12C was > 100 µM (inactive) throughout. For the same molecule, the GI50 in the assay with UACC-62, in the assay on SR, in the assay on NCI-H460 and in the assay on SF-268 was > 100 µM (inactive) throughout.
For the molecule `COc1cc2c(c(OC)c1OC)-c1ccc(SC)c(=O)cc1[C@@H](NC(=O)c1cccc([N+](=O)[O-])c1)CC2`, the GI50 is 0.0351 µM (active) in the assay on 786-0; 0.0208 µM (active) with SF-295; 0.0241 µM (active) with HT-29; < 0.01 µM (active) in the assay on NCI-H23; 0.0171 µM (active) in the assay on SF-539; 0.0288 µM (active) in the assay with IGROV-1. Besides, the GI50 in the assay with HL-60 is < 0.01 µM (active); with SNB-75, 0.0264 µM (active); in the assay on M14 it was 0.0154 µM (active); with ACHN, 0.0489 µM (active); in the assay on SN12C, 0.0282 µM (active); in the assay on UACC-62 it was 0.0292 µM (active). Moreover, the GI50 with SF-268 is 0.0214 µM (active).
For `COC1=CC(=O)c2c(cc(COP(N)(=O)N(CCBr)CCBr)n2C)C1=O` (configuration not stated), the GI50 in the assay with LOX IMVI is < 0.01 µM (active); in the assay with 786-0, < 0.01 µM (active); in the assay with SF-295 it was < 0.01 µM (active); in the assay with HT-29, 0.012 µM (active); in the assay with NCI-H23 it was < 0.01 µM (active); in the assay on SF-539 it was < 0.01 µM (active). Besides, the GI50 is 0.0188 µM (active) in the assay on IGROV-1; 0.0113 µM (active) with HL-60; < 0.01 µM (active) in the assay with SNB-75; < 0.01 µM (active) in the assay with M14; < 0.01 µM (active) in the assay with ACHN; < 0.01 µM (active) in the assay on SN12C. Also, the GI50 in the assay on UACC-62, in the assay on SR, with NCI-H460 and in the assay on SF-268 was < 0.01 µM (active) in each case.

These data come from ChEMBL document CHEMBL1201862, “PubChem BioAssay data set” (2004).
